Read-outs that look alike come from different tables or passages of the source. Ends that are not written are not given here.

These results are taken from article PMC4743981, “Immunomodulatory and Anti-Inflammatory Activities of Chicken Cathelicidin-2 Derived Peptides” (PLoS ONE, 2016).

For test [1], the system named is Avian pathogenic Escherichia coli O78. It is filed as cell-based. The note with it: Avian pathogenic O78, 3 h. The method, then:
Avian pathogenic Escherichia coli O78 (field isolate, Zoetis, Kalamazoo, MI) was cultured in Mueller-Hinton broth at 37°C. Overnight grown cultures were diluted to a density of 2×10^6 CFU/ml in Mueller-Hinton broth (non cation-adjusted, Oxoid Ltd., Hampshire, UK) and mixed in a 96 wells polypropylene microwell plate at a 1:1 ratio with peptide (final concentration: 1.25 to 40 μM). After 3 h incubation samples were serially diluted in medium, plated on trypton soy agar (Oxoid Ltd., Hampshire, UK) media and counted after 24 h incubation at 37°C.

Another test addresses S. minnesota LPS. As to the kind of experiment: LPS binding affinity, dansyl-polymyxin B displacement. On the set-up: species or system Salmonella minnesota. The note with it: concentration of peptide needed to displace 50% of Dansyl-labeled polymyxin from S. minnesota LPS micelles, unsubstituted (Phe) peptide, read-out: I50 (Phe). The method, then:
Dansyl-polymyxin B was prepared and quantitated as described by Schindler and Teuber. Subsequently, the capacity of peptides to displace dansyl-labeled polymyxin B complexed to S. minnesota LPS was determined according to Moore et al..

The subject of test [2] is IL-1β transcription in LPS-primed HD11 cells. As to the kind of experiment: Neutralization of IL-1β transcription in LPS-primed HD11 cells. It is filed as cell-based, chicken. The following applies: HD11 cells primed 30 min with S. minnesota LPS (100–1000 ng/ml), washed once, 4 h with 20 μM peptide; real time QPCR. As to the method: (§1) HD11 cells were a kind gift of dr. Jos van Putten (department of Infectious diseases and Immunology, Utrecht University, The Netherlands). HD11 cells were seeded in 96 wells tissue culture treated plates (1×10^5 cell/mL) and incubated for 18 h at 37°C (5% CO2) before treatment. For peptide-induced effects cells were treated with RPMI-1640 medium containing 20 μM peptide during 4 h or 24 h. In LPS neutralization experiments, final concentrations of 50–100 ng/ml LPS were pre-incubated with or without 20 μM peptide for 30 min at 37°C (5% CO2), applied to the cells and incubated for 4 h. To examine neutralization of LPS-primed cells HD11 cells were exposed for 30 min to 100–1000 ng/ml S. minnesota LPS, washed once and incubated during 4 h in the absence or presence of 20 μM Peptide. Supernatants were collected for the determination of nitric oxide production (24 h incubations only). […] RNA quantity and purity were tested using a Nanodrop ND-1000 spectrophometer (Nanodrop Technologies, Wilmington, DE). Cytotoxicity of peptides was determined using the cell viability reagent WST-1 (Roche) as described previously, and by measuring LDH release after 24 h exposure. LDH activities in supernatant cell fractions were measured using the Cytoxicity Detection Kit PLUS (Roche) according the manufacturers recommendations and expressed as the % of released LDH relative to the total LDH activity. […]

Test [3] deals with NO production by HD11 cells. Kind of test: Peptide-induced nitric oxide production by HD11 cells (Griess). Type of test: cell-based, chicken. The note with it: 24 h exposure to 20 μM peptide without LPS, data not shown. The method, then: HD11 cells were a kind gift of dr. Jos van Putten (department of Infectious diseases and Immunology, Utrecht University, The Netherlands). HD11 cells were seeded in 96 wells tissue culture treated plates (1×10^5 cell/mL) and incubated for 18 h at 37°C (5% CO2) before treatment. For peptide-induced effects cells were treated with RPMI-1640 medium containing 20 μM peptide during 4 h or 24 h. In LPS neutralization experiments, final concentrations of 50–100 ng/ml LPS were pre-incubated with or without 20 μM peptide for 30 min at 37°C (5% CO2), applied to the cells and incubated for 4 h. […] RNA quantity and purity were tested using a Nanodrop ND-1000 spectrophometer (Nanodrop Technologies, Wilmington, DE). Cytotoxicity of peptides was determined using the cell viability reagent WST-1 (Roche) as described previously, and by measuring LDH release after 24 h exposure. LDH activities in supernatant cell fractions were measured using the Cytoxicity Detection Kit PLUS (Roche) according the manufacturers recommendations and expressed as the % of released LDH relative to the total LDH activity.
Nitric oxide production was assessed as the accumulation of nitrite (NO2^−) in cell supernatants during a 24 h incubation period. Nitrite concentrations were determined using a colorimetric reaction with the Griess reagent using (from 1 to 50 μM) sodium nitrite dissolved in water as standards. […]

A further test deals with CXCLi2/IL-8. Kind of test: Peptide-induced CXCLi2 transcription in HD11 cells (real time PCR). Type of test: cell-based, chicken. The following applies: 1 to 20 μM peptide, 4 h or 24 h, real time QPCR. The method, then: as §1
The next test relates to MCP-3. As to the kind of experiment: Peptide-induced MCP-3 transcription in HD11 cells (real time PCR). Type of test: cell-based, chicken. The following applies: 1 to 20 μM peptide, 4 h or 24 h, real time QPCR. The method, then: as §1

In turn, RRWRPKVTITIQ-NH2 [C(10–21)W] displayed an MIC in test [1] of 11.7 ± 7.6 µM.
In test [1], RRFRPKVTITIQ-NH2 [C(10–21)] came in with an MIC of 6.7 ± 2.9 µM.
Still for that read-out and setting: in the case of RKIRRYRPKVTITIQ-NH2 [C(7–21)Y] it was 11.7 ± 7.6 µM; in that of IRRFRPKVTITIQ-NH2 [C(9–21)], 8.3 ± 2.9 µM.
The same measure, in the same setting: in the case of RFGRFLRKIRRFRPKVTITIQ-NH2 [C(1–21)] it was 13.3 ± 5.8 µM; in that of RWGRWLRKIRRWRPKVTITIQ-NH2 [C(1–21)W3], 13.3 ± 5.8 µM.
Same read-out and setting: in the case of RKIRRFRPKVTITIQ-NH2 [C(7–21)] it was 8.3 ± 2.9 µM.
Take RYLRKIRRYRPKVTITIQ-NH2 [C(4–21)Y2]: the MIC in test [1] was 10.0 ± 0.0 µM.
On the same count and under the same terms, as for RFRPKVTITIQ-NH2 [C(11–21)], the figure is 8.3 ± 2.9 µM; as for RFLRKIRRFRPKVTITIQ-NH2 [C(4–21)], 6.7 ± 2.9 µM; as for RRYRPKVTITIQ-NH2 [C(10–21)Y], 16.7 ± 5.8 µM.
Same read-out and setting: as for RKIRRWRPKVTITIQ-NH2 [C(7–21)W], the figure is 13.3 ± 5.8 µM; as for RYGRYLRKIRRYRPKVTITIQ-NH2 [C(1–21)Y3], 10.0 ± 0.0 µM.
Still for that read-out and setting: as for RWLRKIRRWRPKVTITIQ-NH2 [C(4–21)W2], the figure is 8.3 ± 2.9 µM.
In the case of RFGRFLRKIRRFRPK [C(1–15)], in test [1], the MIC was 16.7 ± 5.8 µM.
For the molecule Polymyxin B, the IC50 at S. minnesota LPS (listed as polymyxin B) is 4.19 µM; on S. minnesota LPS, 3.46 ± 0.17 µM.
`CC[C@H](C)[C@H](NC(=O)[C@H](CCCCN)NC(=O)[C@H](CCC(=O)O)NC(=O)[C@H](CCCCN)NC(=O)[C@H](CO)NC(=O)[C@H](CCCCN)NC(=O)[C@H](CCCNC(=N)N)NC(=O)[C@H](Cc1ccccc1)NC(=O)[C@H](Cc1ccccc1)NC(=O)[C@H](CC(=O)O)NC(=O)CNC(=O)[C@H](CC(C)C)NC(=O)[C@@H](N)CC(C)C)C(=O)NCC(=O)N[C@@H](CCCCN)C(=O)N[C@@H](CCC(=O)O)C(=O)N[C@@H](Cc1ccccc1)C(=O)N[C@@H](CCCCN)C(=O)N[C@@H](CCCNC(=N)N)C(=O)N[C@H](C(=O)N[C@H](C(=O)N[C@@H](CCC(N)=O)C(=O)N[C@@H](CCCNC(=N)N)C(=O)N[C@H](C(=O)N[C@@H](CCCCN)C(=O)N[C@@H](CC(=O)O)C(=O)N[C@@H](Cc1ccccc1)C(=O)N[C@@H](CC(C)C)C(=O)N[C@@H](CCCNC(=N)N)C(=O)N[C@@H](CC(N)=O)C(=O)N[C@@H](CC(C)C)C(=O)N[C@H](C(=O)N1CCC[C@H]1C(=O)N[C@@H](CCCNC(=N)N)C(=O)N[C@H](C(=O)N[C@@H](CCC(=O)O)C(=O)N[C@@H](CO)C(=O)O)[C@@H](C)O)C(C)C)[C@@H](C)CC)C(C)C)[C@@H](C)CC` [LL37]: the “inhibition of IL-1β transcription induced by LPS priming (in words)” value in test [2] was “strongly inhibited”. Also, at S. minnesota LPS, the IC50 turned out to be 0.28 ± 0.04 µM. Besides, the “increase of NO levels” value in test [3] was found to be 2 fold. Further, the “induction of CXCLi2 transcription (in words)” value in the test on CXCLi2/IL-8 is listed as “inducing the transcription”. The “induction of MCP-3 transcription (in words)” value in the test with MCP-3 is “inducing the transcription”.
In turn, FLRKIRRFRPKVTITIQ-NH2 [C(5–21)] showed an MIC in test [1] of 8.3 ± 5.8 µM.
On the same count and under the same terms, in the case of RFGRFLRKIRRFRPKVTITIQGSARF-NH2 [CATH-2] it was 5.0 ± 0.0 µM.
Same read-out and setting: in the case of KIRRFRPKVTITIQ-NH2 [C(8–21)] it was 11.7 ± 7.6 µM.
